In patent publication US12187722B2, “Small molecule inhibitors of TEAD transcription factors” (The General Hospital Corporation, priority 2019, dated 2025):
Read-outs that look alike come from different tables or passages of the source.

Legend:
[1] = target: T1, TEAD2 (Homo sapiens (Human), UniProt Q15562); assay: In vitro palmitoylation (TEAD2 autopalmitoylation, streptavidin blot); type: biochemical; settings: compound at 10 μM
Procedure, shortened: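 Autopalmitoylation read by streptavidin-HRP Western blot after CuSO4/TBTA/TCEP click with 100 μM biotin-azide, 1 h RT, with His-HRP probed separately. Before that, TEAD2 protein (GST or His6, 500 ng) given compound for 15 min then 1 μM alkyne palmitoyl-CoA for 30 min; percent inhibition versus DMSO-treated samples.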

[2] = target: T1, TEAD2; assay: CMP assay (CPM fluorescence detection of free CoA); type: biochemical
Procedure: 7-Diethylamino-3-(4′-Maleimidylphenyl)-4-Methylcoumarin (CPM), which reacts with thiol of CoA liberated in the enzymatic reaction, and gives fluorescent signal (excitation ˜350-380, emission-460-480). The assay detects the product (free CoA) which is produced from palmitoyl-CoA as a method to detect the enzymatic activity. Test compounds that inhibit TEAD activity are therefore able to block the CMP fluorescent signal.
TEAD2/4 protein (10 μL of a 50 ng/μL solution) and a solution the test compound (0.5 μL, variable concentration) were pre-incubated for 30 min at r.t. A mixture prepared from MES pH 6.4 buffer (6.5 μL of a 50 mM solution), EDTA (1 μL of a 20 mM solution), palmitoyl-CoA (1 μL of a 20 μM solution), and 7-diethylamino-3-(4′-maleimidylphenyl)-4-methylcoumarin (1 μL of a 10 μM solution) was added and the resulting mixture was mixed well using a pipette. The solution was then incubated at r.t. for 30-120 min. in the dark, and fluorescence was detected at […] every 30 min. until the fluorescence signal is saturated. An IC50 for the ability of the compound to inhibit fluorescence is calculated from the results.

[3] = Table 3, unit inferred, read-out: TEAD2 palmitoylation IC50
[4] = Table 2, read-out: IC50 μM (CMP assay)

T1 sequence (Q15562 whole entry): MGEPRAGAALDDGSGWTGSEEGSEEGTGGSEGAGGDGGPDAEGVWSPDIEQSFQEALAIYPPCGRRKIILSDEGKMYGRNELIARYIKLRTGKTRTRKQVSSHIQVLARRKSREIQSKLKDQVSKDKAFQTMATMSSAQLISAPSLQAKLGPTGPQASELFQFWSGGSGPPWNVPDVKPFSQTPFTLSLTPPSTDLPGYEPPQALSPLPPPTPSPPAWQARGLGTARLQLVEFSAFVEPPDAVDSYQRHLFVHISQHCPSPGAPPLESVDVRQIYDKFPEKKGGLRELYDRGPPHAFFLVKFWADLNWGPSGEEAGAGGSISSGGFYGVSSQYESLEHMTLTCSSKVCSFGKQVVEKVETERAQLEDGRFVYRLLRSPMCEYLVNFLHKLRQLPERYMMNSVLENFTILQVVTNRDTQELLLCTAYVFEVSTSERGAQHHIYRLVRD

SMILES | inhibition at 10 µM ([1]; Table 3) | IC50 [2, 3] | inhibition at 10 µM ([1]; Table 2) | IC50 [2, 4] | % of inhibition of TEAD2 palmitoylation at 10 μM ([1]; Table 3)
COc1ccc(Nc2ccc(N(C)c3ccc(OC(F)(F)F)cc3)cc2F)c(C(=O)O)c1 [CP-589] | 97% | 1.57 µM | – | – | –
CC12CC3CC(C)(C1)CC(c1ccc(Oc4ccc(Nc5ccccc5C(=O)O)cc4)c(Cl)c1)(C3)C2 [Compound 253] | – | – | 100% | 0.099 µM | –
COc1ccc(Nc2ccc(N(C)c3ccc(C)cc3)cc2)c(C(=O)O)c1 [CP-554] | 96% | 0.01 µM | – | – | –
COc1ccc(Nc2ccc(N(C)c3ccc(C4CCC(C)CC4)cc3)cc2)c(C(=O)O)c1 (stereo not shown) [CP-583] | – | 0.23 µM | – | – | 96%
COc1ccc(Nc2ccc(N(C)c3ccc(S(F)(F)(F)(F)F)cc3)cc2C)c(C(=O)O)c1 [CP-571] | 94% | 0.36 µM | – | – | –
COc1ccc(Nc2ccc(N(C)c3ccc(N4CCCCC4)cc3)cc2)c(C(=O)O)c1 [CP-555] | 100% | 0.01 µM | – | – | –
COc1ccc(Nc2ccc(N(C)c3ccc(C4CCC(C)CC4)cc3)cc2)c(C(=O)O)c1 (stereo not shown) [CP-584] | – | 0.21 µM | – | – | 85%
COc1ccc(Nc2ccc(N(C)c3ccc(C(F)(F)F)cc3)cc2)c(C(=O)O)c1 [CP-521] | 93% | 1.45 µM | – | – | –
COc1ccc(Nc2ccc(N(C)c3ccc(C4CCCCC4)cc3)nc2)c(C(=O)O)c1 [CP-598] | 74% | 0.05 µM | – | – | –
COc1ccc(Nc2ccc(N(C)c3ccc(OCC(F)(F)F)cc3)cc2C)c(C(=O)O)c1 [CP-565] | 100% | 0.51 µM | – | – | –
O=C(O)c1cccc(Nc2ccc(Nc3ccc(C45CC6CC(CC(C6)C4)C5)cc3Cl)cc2)n1 [Compound 90] | – | – | 98% | 0.446 µM | –
